Measurements reported in patent publication US11766435B2, “N3-substituted iminopyrimidinones as antimalarial agents” (Merck Sharp & Dohme LLC, priority 2016, dated 2023).

Tested on: asexual P. falciparum 3D7 parasites
Test: P. falciparum growth inhibition assay measuring LDH activity (Assay 1)
Format: cell-based
Conditions: 3D7 strain, parasitized red blood cells, 72 h incubation, LDH activity read by absorbance at 650 nm
Procedure: A modified version of the assay described in Gamo, F. J., Sanz, L. M., Vidal, J., de Cozar, C., Alvarez, E., Lavandera, J. L., Vanderwall, D. E., Green, D. V., Kumar, V., Hasan, S., Brown, J. R., Peishoff, C. E., Cardon, L. R., Garcia-Bustos, J. F., Nature, 465 (2010) 305-310 (Gamo et al.) was used to assess the activity of compounds against asexual P. falciparum 3D7 parasites. Compounds were pre-dispensed in 384-well plates, RPMI/AlbuMAX growth media was added and P. falciparum inoculated. Plates were incubated for 72 h and then frozen at −80° C. overnight. Lactate dehydrogenase (LDH) activity was quantified with the modified cofactor 3-acetylpyridine adenine dinucleotide (APAD) (Sigma Aldrich) by measuring absorbance of the tetrazolium indicator nitro blue tetrazolium (NBT) (Sigma Aldrich) at 650 nm.
An inoculum of synchronous P. falciparum (3D7 strain) parasitized red blood cells (PRBC) at 0.7% parasitaemia and 2% haematocrit in RPMI-1640, 5% AlbuMAX, 2% D-sucrose, 0.3% glutamine and 150 μM hypoxanthine was used for the assay.
Compound master plates (384-well) were prepared by a 10 pt serial dilution of compounds, from 1 mM to 50.8 nM, in columns 3-12 and 13-22. DMSO was dispensed into columns 1 and 23 of the compound master plate to be used as the positive growth control (100% viability). […] Intermediate compound dilution plates were prepared by dispensing 1 μl from each well of the compound master plate into 11.5 μl of RPMI/AlbuMAX growth media. Duplicate assay plates (384-well) were then prepared by dispensing 0.5 μL of compound from the intermediate dilution plates into 9.5 μl of RPMI/AlbuMAX growth media. The parasite inoculum (30 μL) was dispensed into the assay plates containing compounds using a Multidrop dispenser (Thermo Scientific) such that the final assay volume was 40 μL and final compound concentration was 1 μM-0.05 nM (the volume of compound addition can be adjusted to the preferred and agreed screening concentration). The final DMSO concentration was 0.1% (ideally 0.2% to limit toxicity to parasites), but this is dependent on volume of compound DMSO stock solution that can be supplied. Plates were incubated at 37° C. for 72 h in an atmosphere of 5% CO2, 5% O2, […].
After 72 h of incubation, plates were frozen at −80° C. overnight and then thawed at room temperature for at least 4 h. To evaluate LDH activity, 45 μL of freshly made reaction mix (174 mM sodium L-lactate (Sigma Aldrich), 214 μM 3-acetyl pyridine adenine dinucleotide (APAD) (Sigma Aldrich), 270 μM nitro blue tetrazolium chloride (NBT) (Sigma Aldrich), 4.35 U/mL diaphorase (from Clostridium kluyveri) (Sigma Aldrich), 0.7% Tween 20, 100 mM Tris-HCl pH 7.5) was dispensed using a Multidrop dispenser (Thermo Scientific). Plates were shaken to ensure mixing and absorbance at 650 nm was monitored using a Perkin Elmer Envision plate reader after 30 min of incubation at room temperature. Data were normalized to percent growth inhibition using positive and negative controls, and analysed using TIBCO Spotfire software. […]

Structure (SMILES) | IC50 [nM]
C[C@H](NC(=O)c1cccc(C(c2ccccc2)N2C(=N)NC(C)(C)CC2=O)c1)c1ccccc1 (single isomer, unassigned) [Compound 27] | 14
C[C@H](NC(=O)c1cccc(C(c2ccccc2)N2C(=N)NC(C)(C)CC2=O)c1)c1ccccc1 (single isomer, unassigned) [Compound 28] | > 1000
CC(C)[C@]1(C)CC(=O)N(C(c2ccccc2)c2cccc(C(=O)N[C@@H](C)c3ccccc3)c2)C(=N)N1 (stereo partly shown) [Compound 1] | 3
CC(C)[C@]1(C)CC(=O)N(Cc2cc(F)cc(C(=O)NC(CCN(C)C)c3ccccc3)c2)C(=N)N1 (stereo partly shown) [Compound 34] | 310
CC(C)[C@]1(C)CC(=O)N(C(c2ccccc2)c2cccc(C(=O)N[C@@H](C)c3ccccc3)c2)C(=N)N1 (stereo partly shown) [Compound 55] | 3.5
CC(C)[C@]1(C)CC(=O)N(C(c2ccccc2)c2cccc(C(=O)N[C@@H](C)c3ccccc3)c2)C(=N)N1 (stereo partly shown) [Compound 56] | 360

Same assay, conditions: Plasmodium falciparum, 3D7, Erythrocyte, 72 h, 3D7 strain, parasitized red blood cells, 72 h incubation, LDH activity read by absorbance at 650 nm

Structure (SMILES) | IC50 [nM]
CC(C)CC(c1ccc(C(F)(F)F)c(C(=O)N2Cc3nccnc3C2)c1)N1C(=N)N[C@](CC2CC2)(c2ccccc2)CC1=O (stereo partly shown) [Compound 2] | 1.3
CC(C)[C@]1(C)CC(=O)N(Cc2ccc(C(=O)N[C@@H](C)c3cccc(F)c3)s2)C(=N)N1 [Compound 3] | 1.37
CC(C)[C@]1(C)CC(=O)N(Cc2cc(F)cc(C(=O)N[C@H]3CCCc4ccccc43)c2)C(=N)N1 [Compound 4] | 1.68
COCC[C@H](NC(=O)c1cc(Cl)cc(CN2C(=N)N[C@](C)(C(C)C)CC2=O)c1)c1ccccc1 [Compound 5] | 2.53
CC(C)[C@]1(C)CC(=O)N(Cc2cc(F)cc(C(=O)N[C@H]3CCc4ccccc43)c2)C(=N)N1 [Compound 6] | 2.92
N=C1N[C@](CC2CC2)(c2ccccc2)CC(=O)N1Cc1ccc(-c2ccncc2)c(C(=O)N2Cc3nccnc3C2)c1 [Compound 7] | 3.27
N=C1N[C@](CC2CC2)(c2ccccc2)CC(=O)N1Cc1ccc(-c2ccccc2)c(C(=O)N2Cc3nccnc3C2)c1 [Compound 8] | 3.42
COCC[C@H](NC(=O)c1cc(F)cc(CN2C(=N)NC3(CCCC3)CC2=O)c1)c1ccccc1 [Compound 9] | 4.19
COCC[C@H](NC(=O)c1cccc(CN2C(=N)N[C@](C)(C(C)C)CC2=O)c1)c1ccccc1 [Compound 10] | 5.34
COCC[C@H](NC(=O)c1cc(F)cc(CN2C(=N)N[C@](C)(C(C)C)CC2=O)c1)c1ccccc1 [Compound 11] | 5.67
N=C1N[C@](CC2CC2)(c2ccccc2)CC(=O)N1Cc1ccc(Br)c(C(=O)N2Cc3nccnc3C2)c1 [Compound 12] | 6.01
CC(C)[C@]1(C)CC(=O)N([C@H](C)c2cc(F)cc(C(=O)N[C@@H](C)c3ccccc3)c2)C(=N)N1 [Compound 13] | 6.43
COCCC[C@H](NC(=O)c1cc(F)cc(CN2C(=N)N[C@](C)(C(C)C)CC2=O)c1)c1ccccc1 [Compound 14] | 6.62
CC(C)[C@]1(C)CC(=O)N(Cc2cccc(N3C[C@@H](c4ccccc4)CC3=O)c2)C(=N)N1 [Compound 15] | 7.74
CC(C)[C@]1(C)CC(=O)N([C@H](C)c2cccc(N3C[C@@H](c4ccccc4)CC3=O)c2)C(=N)N1 [Compound 16] | 8.06
COCC[C@H](NC(=O)c1cc(F)cc(CN2C(=N)N[C@](C)(C(C)C)CC2=O)c1)c1ccc(F)cc1 [Compound 17] | 10.6
CC(C)[C@]1(C)CC(=O)N(Cc2cc(C(=O)N[C@@H](C)c3ccccc3)ccc2F)C(=N)N1 [Compound 18] | 12.9
CC(C)[C@]1(C)CC(=O)N(Cc2cc(F)cc(C(=O)NC3CCCCCC3)c2)C(=N)N1 [Compound 19] | 14
CC(C)[C@]1(C)CC(=O)N([C@H](C)c2cccc(N3C[C@H](c4ccccc4)CC3=O)c2)C(=N)N1 [Compound 20] | 14
CC(C)[C@]1(C)CC(=O)N([C@H](C)c2cccc(C(=O)N[C@@H](C)c3cccc(Cl)c3)c2)C(=N)N1 [Compound 21] | 19.9
N=C1N[C@](CC2CC2)(c2ccccc2)CC(=O)N1Cc1ccc(C(F)(F)F)c(C(=O)N2CCn3c(nnc3C(F)(F)F)C2)c1 [Compound 22] | 27.2
CC(C)[C@]1(C)CC(=O)N(Cc2cc(F)cc(C(=O)N[C@H](C)c3ccccc3)c2)C(=N)N1 [Compound 23] | 33
CC(C)[C@]1(C)CC(=O)N(Cc2cc(F)cc(C(=O)N[C@@H](C)c3ccccc3)c2)C(=N)N1 [Compound 24] | 48.8
C[C@@]1(c2c(F)cc(F)cc2F)CC(=O)N(Cc2cccc(C(=O)N3Cc4ccccc4C3)c2)C(=N)N1 [Compound 25] | 139
CC(C)[C@]1(C)CC(=O)N([C@@H](C)c2cccc(N3C[C@H](c4ccccc4)CC3=O)c2)C(=N)N1 [Compound 26] | 371

Structure (SMILES) | IC50 [nM]
CCC1(CC)CC(=O)N(Cc2cc(F)cc(C(=O)N(C)[C@@H](C)c3ccccc3)c2)C(=N)N1 [Compound 29] | 870
CC(C)[C@]1(C)CC(=O)N(Cc2cc(F)cc(C(=O)NC(CCN(C)C)c3ccccc3)c2)C(=N)N1 (stereo partly shown) [Compound 30] | 260
CCC1(CC)CC(=O)N(Cc2cc(F)cc(C(=O)N[C@@H](C)c3ccccc3)c2)C(=N)N1 [Compound 31] | 94
C[C@H](NC(=O)c1cc(F)cc(CN2C(=N)NC3(CCCC3)CC2=O)c1)c1ccccc1 [Compound 32] | 500
C[C@H](NC(=O)c1cc(F)cc(CN2C(=N)NC3(CCCCC3)CC2=O)c1)c1ccccc1 [Compound 33] | 260
CC(C)[C@]1(C)CC(=O)N(Cc2cc(F)cc(C(=O)N3Cc4ccccc4C3)c2)C(=N)N1 [Compound 35] | 390
C[C@H](NC(=O)c1cc(F)cc(CN2C(=N)N[C@@](C)(c3ccccc3)CC2=O)c1)c1ccccc1 [Compound 36] | 130
C[C@H](NC(=O)c1cc(F)cc(CN2C(=N)NC3(CCC(C)(C)CC3)CC2=O)c1)c1ccccc1 [Compound 37] | 620
C[C@H](NC(=O)c1cc(F)cc(CN2C(=N)NC(c3ccccc3)(c3ccccc3)CC2=O)c1)c1ccccc1 [Compound 38] | 570
C[C@H](NC(=O)c1cc(F)cc(CN2C(=N)NC3(CCC3)CC2=O)c1)c1ccccc1 [Compound 39] | 1000
CC(C)[C@]1(C)CC(=O)N(Cc2ccc(C(=O)N[C@@H](C)c3ccccc3)cc2)C(=N)N1 [Compound 40] | 630
CC(C)[C@]1(C)CC(=O)N(Cc2ccc(C(=O)NCc3ccccc3F)cc2)C(=N)N1 [Compound 41] | 430
CC(C)[C@]1(C)CC(=O)N(Cc2ccc(C(=O)NCc3cccc(F)c3)cc2)C(=N)N1 [Compound 42] | 480
CC(C)[C@]1(C)CC(=O)N(Cc2ccc(C(=O)NCc3ccc(F)cc3)cc2)C(=N)N1 [Compound 43] | 860
Cc1ccccc1CNC(=O)c1ccc(CN2C(=N)N[C@](C)(C(C)C)CC2=O)cc1 [Compound 44] | 320
Cc1cccc(CNC(=O)c2ccc(CN3C(=N)N[C@](C)(C(C)C)CC3=O)cc2)c1 [Compound 45] | 810
Cc1ccc(CNC(=O)c2ccc(CN3C(=N)N[C@](C)(C(C)C)CC3=O)cc2)cc1 [Compound 46] | 550
CC(C)[C@]1(C)CC(=O)N(Cc2ccc(C(=O)N3Cc4ccccc4C3)cc2)C(=N)N1 [Compound 47] | 490
C[C@H](NC(=O)c1cc(F)cc(CN2C(=N)NCC(c3ccccc3)C2=O)c1)c1ccccc1 (stereo partly shown) [Compound 49] | 770
CCC1(CC)CC(=O)N(Cc2cc(F)cc(C(=O)N3Cc4ccccc4C3)c2)C(=N)N1 [Compound 50] | 610
CC(C)[C@]1(C)CC(=O)N(C(c2ccccc2)c2cccc(C(=O)N3Cc4ccccc4C3)c2)C(=N)N1 (stereo partly shown) [Compound 51] | 49
CC(C)[C@]1(C)CC(=O)N(C(c2ccccc2)c2cccc(C(=O)N3Cc4nccnc4C3)c2)C(=N)N1 (stereo partly shown) [Compound 52] | 270
CCC1(CC)CC(=O)N(Cc2cc(F)cc(C(=O)N3Cc4nccnc4C3)c2)C(=N)N1 [Compound 53] | 870
CC1(C)CC(=O)N(C(c2ccccc2)c2cccc(C(=O)N3Cc4ccccc4C3)c2)C(=N)N1 (stereo not shown) [Compound 54] | 390
